Measured values from patent US20060229433A1, “Modified antiviral peptides with increased activity and cell membrane affinity” (priority 2003, published 2006).
Values joined by “and” are separate entries in the source; they are usually repeats but may differ in a detail not shown here. Identical values can stand only once. Peptide text beside a SMILES is read from it.

Experiments:
Type in all cases: cell-based
HIV-1 NDK = assay: HIV-1 infection of C8166 cells (syncytia formation, p24 ELISA) with HIV-1 NDK; set-up: key to syncitia formed, Day 4 / syncitia formed, Day 5 / syncitia formed, Day 6 / syncitia formed, Day 7: ++, +, (+), (+)− and − represent decreasing numbers of syncitia formed; ++, +, (+), (+)− and − represent decreasing numbers of syncitia formed; ++, +, (+), (+)− and − represent decreasing numbers of syncitia formed; ++, +, (+), (+)− and − represent decreasing numbers of syncitia formed; ++, +, (+), (+)− and − represent decreasing numbers of syncitia formed; conditions: for P 24: P 24 after Day 7
Experimental: HIV-1 NL 4-3 isolate (Adachi et al., 1986; Barré-Sinoussi et al., 1983) and highly cytopathic Zairian HIV-1 NDK isolate (Ellrodt et al., 1984) was propagated in permissive CEM cells (Nara et al., 1987). Uninfected CEM and C8166 (Salahuddin et al., 1983) were maintained in RPMI 1640 (R10) with ultraglutamine (cambrex, Vervier, Belgium), penicillin (100 U/ml), streptomycin (100 μg/ml), and 10% heat-inactivated fetal calf serum (Cambrex).
Samples of 3×10^5/100 μL C8166 cells were preincubated in 96-well microtiter plates in culture medium containing various concentrations of peptide. After a 1 h treatment at 37° C., 100 μl of diluted viral solution of HIV-1 was added. The cells were exposed to the virus for 1 h at 37° C. at a multiplicity of infection of 1000 TCID50 per ml. The cells were washed three times and cultured at 3×10^5/ml of R10 with the treatment in 24-well plates incubated at 37° C. C8166 culture medium was replaced at Day-4 post-infection. The treatment was permanent before virus adsorption, during virus adsorption and after infection. Assays on C8166 cells have been performed at least twice and in duplicate. Toxicity was evaluated by daily cell count and trypan-blue exclusion assay. Infection of C8166 T-cells with HIV-1 was assessed by virus-induced cytopathic effects (syncytia formation) and by quantification of cell free p24 viral protein in the culture supernatants. Measurements of HIV-1 p24^gag concentration in the culture supernatants were achieved by ELISA (ALLIANCE® HIV-1 p24 kit, Perkin Elmer, life sciences, USA).

HIV-1 NL 4-3 [1] = assay: HIV-1 infection of C8166 cells (syncytia formation, p24 ELISA) with HIV-1 NL 4-3; set-up: key: ++, +, (+), (+)− and − represent decreasing numbers of syncitia formed; ++, +, (+), (+)− and − represent decreasing numbers of syncitia formed; ++, +, (+), (+)− and − represent decreasing numbers of syncitia formed; ++, +, (+), (+)− and − represent decreasing numbers of syncitia formed; ++, +, (+), (+)− and − represent decreasing numbers of syncitia formed; conditions: Table 6
How it was run: (§1)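 Infection was read out as syncytia and as cell-free p24 in supernatants (ELISA) from C8166 cells that received HIV-1 (1000 TCID50/ml, 1 h, 37 °C) after a 1 h peptide pretreatment. Peptide stayed on before, during and after adsorption. Toxicity was checked by daily trypan-blue counts.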

HIV-1 NL 4-3 [2] = assay: as above; set-up: key to syncitia formed, Day 4 / syncitia formed, Day 5 / syncitia formed, Day 6 / syncitia formed, Day 7: ++, +, (+), (+)− and − represent decreasing numbers of syncitia formed; ++, +, (+), (+)− and − represent decreasing numbers of syncitia formed; ++, +, (+), (+)− and − represent decreasing numbers of syncitia formed; ++, +, (+), (+)− and − represent decreasing numbers of syncitia formed; ++, +, (+), (+)− and − represent decreasing numbers of syncitia formed
How it was run: as §1

[3] = C8166 cells, HIV-1 subtype B NL 4-3, Table 9, two lines = tested twice, 8 days apart

NCC(=O)N1CCC[C@H]1C(=O)NCC(=O)O [GPG, reference compound] (H-Gly-Pro-Gly-OH)
3810 pg/mL and 2507 pg/mL: P 24 (HIV-1 NDK; 1 μM)
807 pg/mL and 1506 pg/mL: P 24 (HIV-1 NL 4-3 [2]; 0.1 μM, P 24 after Day 7, C8166 cells)
10 nM: IC50 (HIV-1 NL 4-3 [2]; [3])
2733 pg/mL and 2400 pg/mL: P 24 (HIV-1 NDK; 5 μM)
5 µM: IC100 (HIV-1 NL 4-3 [2]; [3])
− and (+): syncitia formed, Day 6 (HIV-1 NL 4-3 [2]; 0.5 μM, C8166 cells)
>5 µM: IC100 (HIV-1 NDK; HIV 1 NDK, Table 10)
9810 pg/mL and 15810 pg/mL: P 24 (HIV-1 NL 4-3 [2]; 0.01 μM, P 24 after Day 7, C8166 cells)
21110 pg/mL and 23810 pg/mL: P 24 (HIV-1 NDK; 0.5 μM)
(+) and +: syncitia formed, Day 7 (HIV-1 NL 4-3 [2]; 0.5 μM, Day 7, C8166 cells)
500 nM: IC50 (HIV-1 NDK; HIV 1 NDK, Table 10)
−: syncitia formed, Day 4 (HIV-1 NDK; 0.1 μM) | syncitia formed, Day 4 (HIV-1 NDK; 0.5 μM) | syncitia formed, Day 4 (HIV-1 NDK; 1 μM) | syncitia formed, Day 4 (HIV-1 NDK; 5 μM) | syncitia formed, Day 5 (HIV-1 NDK; 5 μM) | syncitia formed, Day 6 (HIV-1 NDK; 5 μM) | Day 4 syncitia formed (HIV-1 NL 4-3 [1]; 0.005 μM) | Day 4 syncitia formed (HIV-1 NL 4-3 [1]; 0.01 μM) | Day 4 syncitia formed (HIV-1 NL 4-3 [1]; 0.05 μM) | Day 5 syncitia formed (HIV-1 NL 4-3 [1]; 0.05 μM) | Day 4 syncitia formed (HIV-1 NL 4-3 [1]; 0.1 μM) | Day 5 syncitia formed (HIV-1 NL 4-3 [1]; 0.1 μM) | Day 6 syncitia formed (HIV-1 NL 4-3 [1]; 0.1 μM) | Day 4 syncitia formed (HIV-1 NL 4-3 [1]; 0.5 μM) | Day 5 syncitia formed (HIV-1 NL 4-3 [1]; 0.5 μM) | Day 6 syncitia formed (HIV-1 NL 4-3 [1]; 0.5 μM) | Day 7 syncitia formed (HIV-1 NL 4-3 [1]; 0.5 μM) | Day 4 syncitia formed (HIV-1 NL 4-3 [1]; 1 μM) | Day 5 syncitia formed (HIV-1 NL 4-3 [1]; 1 μM) | Day 6 syncitia formed (HIV-1 NL 4-3 [1]; 1 μM) | Day 7 syncitia formed (HIV-1 NL 4-3 [1]; 1 μM) | Day 4 syncitia formed (HIV-1 NL 4-3 [1]; 5 μM) | Day 5 syncitia formed (HIV-1 NL 4-3 [1]; 5 μM) | Day 6 syncitia formed (HIV-1 NL 4-3 [1]; 5 μM) | Day 7 syncitia formed (HIV-1 NL 4-3 [1]; 5 μM) | syncitia formed, Day 4 (HIV-1 NL 4-3 [2]; 0.1 μM, C8166 cells) | syncitia formed, Day 5 (HIV-1 NL 4-3 [2]; 0.1 μM, C8166 cells) | syncitia formed, Day 4 (HIV-1 NL 4-3 [2]; 0.5 μM, C8166 cells) | syncitia formed, Day 5 (HIV-1 NL 4-3 [2]; 0.5 μM, C8166 cells) | syncitia formed, Day 4 (HIV-1 NL 4-3 [2]; 1 μM, C8166 cells) | syncitia formed, Day 5 (HIV-1 NL 4-3 [2]; 1 μM, C8166 cells) | syncitia formed, Day 6 (HIV-1 NL 4-3 [2]; 1 μM, C8166 cells) | syncitia formed, Day 4 (HIV-1 NL 4-3 [2]; 5 μM, C8166 cells) | syncitia formed, Day 5 (HIV-1 NL 4-3 [2]; 5 μM, C8166 cells) | syncitia formed, Day 6 (HIV-1 NL 4-3 [2]; 5 μM, C8166 cells) | syncitia formed, Day 7 (HIV-1 NL 4-3 [2]; 5 μM, Day 7, C8166 cells)
++/T: Day 7 syncitia formed (HIV-1 NL 4-3 [2]; 0.005 μM, Table 6)
7330 pg/mL and 9810 pg/mL: P 24 (HIV-1 NL 4-3 [2]; Day 7, 0.05 μM, Table 6)
13850 pg/mL and 11756 pg/mL: P 24 (HIV-1 NL 4-3 [2]; Day 7, 0.01 μM, Table 6)
5.4 pg/mL and 3.8 pg/mL: P 24 (HIV-1 NL 4-3 [2]; Day 7, 1 μM, Table 6)
23810 pg/mL: P 24 (HIV-1 NDK; 0.005 μM) | P 24 (HIV-1 NDK; 0.01 μM) | P 24 (HIV-1 NDK; 0.05 μM) | P 24 (HIV-1 NDK; 0.1 μM) | P 24 (HIV-1 NL 4-3 [2]; Day 7, 0.005 μM, Table 6)
+: syncitia formed, Day 4 (HIV-1 NDK; 0.005 μM) | syncitia formed, Day 5 (HIV-1 NDK; 0.005 μM) | syncitia formed, Day 4 (HIV-1 NDK; 0.01 μM) | syncitia formed, Day 5 (HIV-1 NDK; 0.01 μM) | syncitia formed, Day 5 (HIV-1 NDK; 0.05 μM) | syncitia formed, Day 5 (HIV-1 NDK; 0.1 μM) | syncitia formed, Day 5 (HIV-1 NDK; 0.5 μM) | syncitia formed, Day 6 (HIV-1 NDK; 1 μM) | syncitia formed, Day 7 (HIV-1 NDK; 1 μM) | syncitia formed, Day 7 (HIV-1 NDK; 5 μM) | Day 5 syncitia formed (HIV-1 NL 4-3 [1]; 0.005 μM) | Day 6 syncitia formed (HIV-1 NL 4-3 [1]; 0.01 μM) | Day 7 syncitia formed (HIV-1 NL 4-3 [1]; 0.05 μM) | Day 7 syncitia formed (HIV-1 NL 4-3 [1]; 0.1 μM) | syncitia formed, Day 6 (HIV-1 NL 4-3 [2]; 0.01 μM, C8166 cells) | syncitia formed, Day 7 (HIV-1 NL 4-3 [2]; 0.1 μM, Day 7, C8166 cells)
(+): syncitia formed, Day 4 (HIV-1 NDK; 0.05 μM) | syncitia formed, Day 5 (HIV-1 NDK; 1 μM) | Day 5 syncitia formed (HIV-1 NL 4-3 [1]; 0.01 μM) | Day 6 syncitia formed (HIV-1 NL 4-3 [1]; 0.05 μM) | syncitia formed, Day 4 (HIV-1 NL 4-3 [2]; 0.01 μM, C8166 cells) | syncitia formed, Day 5 (HIV-1 NL 4-3 [2]; 0.01 μM, C8166 cells) | syncitia formed, Day 6 (HIV-1 NL 4-3 [2]; 0.1 μM, C8166 cells) | syncitia formed, Day 7 (HIV-1 NL 4-3 [2]; 1 μM, Day 7, C8166 cells)
++: syncitia formed, Day 6 (HIV-1 NDK; 0.005 μM) | syncitia formed, Day 7 (HIV-1 NDK; 0.005 μM) | syncitia formed, Day 6 (HIV-1 NDK; 0.01 μM) | syncitia formed, Day 7 (HIV-1 NDK; 0.01 μM) | syncitia formed, Day 6 (HIV-1 NDK; 0.05 μM) | syncitia formed, Day 7 (HIV-1 NDK; 0.05 μM) | syncitia formed, Day 6 (HIV-1 NDK; 0.1 μM) | syncitia formed, Day 7 (HIV-1 NDK; 0.1 μM) | syncitia formed, Day 6 (HIV-1 NDK; 0.5 μM) | syncitia formed, Day 7 (HIV-1 NDK; 0.5 μM) | Day 6 syncitia formed (HIV-1 NL 4-3 [1]; 0.005 μM) | Day 7 syncitia formed (HIV-1 NL 4-3 [1]; 0.01 μM) | syncitia formed, Day 7 (HIV-1 NL 4-3 [2]; 0.01 μM, Day 7, C8166 cells)
62 pg/mL and 42 pg/mL: P 24 (HIV-1 NL 4-3 [2]; 1 μM, P 24 after Day 7, C8166 cells)
